Measured values from patent US20100273189A1, “NON SEPARATION ASSAYS WITH SELECTIVE SIGNAL INHIBITORS” (BECKMAN COULTER, INC., priority 2009, published 2010).
Values joined by “and” are separate entries in the source; they are usually repeats but may differ in a detail not shown here. Equal entries are not always repeated.

What was measured:
Assay type in all cases: biochemical
biotinylated HRP = target: T1, biotinylated HRP (Armoracia rusticana, UniProt P00433); assay: Model system for selection of SSIA (M280 btn-BSA-AK1-streptavidin particles + Btn-HRP:HRP)
T1 construct: purchased Roche Diagnostics, Indianapolis, Ind., USA
T1 sequence (P00433 31-338 limits assumed): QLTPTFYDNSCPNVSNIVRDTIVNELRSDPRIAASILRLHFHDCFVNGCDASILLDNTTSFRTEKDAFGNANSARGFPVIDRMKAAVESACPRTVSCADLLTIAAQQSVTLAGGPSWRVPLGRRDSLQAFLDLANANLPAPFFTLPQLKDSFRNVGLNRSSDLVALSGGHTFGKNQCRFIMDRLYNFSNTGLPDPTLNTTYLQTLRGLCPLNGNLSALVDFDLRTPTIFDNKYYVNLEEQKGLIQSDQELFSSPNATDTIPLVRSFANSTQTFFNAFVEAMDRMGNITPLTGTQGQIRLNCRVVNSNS

cTnI = assay: Effect of ascorbic acid concentration on cTnI assay using various particles; settings: ascorbic acid 150 μM to 9.4 μM; Dynal M-280, 6 μm CML, LodeStars; in words
Procedure: Effect of ascorbic acid on cTnI assay using various particles. The effect of varying the ascorbic acid concentration in the range 150 μM to 9.4 μM on chemiluminescence was investigated for assays employing Dynal M-280, 6 μm CML, and LodeStars particles.

HRP = target: T2, HRP (Armoracia rusticana, UniProt P00433); assay: HRP model system on silica particles, with and without ascorbic acid; settings: 150 μM Ascorbate; for RLU: replicates
T2 construct: purchased Roche Diagnostics, Indianapolis, Ind., USA
T2 sequence (P00433 31-338 limits assumed): T1 sequence (P00433 31-338 limits assumed)
Procedure: In order to further investigate the effect of specific solid phase particles on the assays described herein, a comparison of a variety of particle types was conducted, including silica, polymethylmethacrylate (PMMA). Carboxyl modified PMMA particles (PolyAn GmbH, Berlin) were labeled with AK and biotin as described in Example 3, followed by coating with streptavidin. Silica particles were reacted with 3-aminopropylsiloxane in 1 mM acetic acid to provide an amine reactive group. The amine functional groups were reacted with AK-3 and biotin-LC-sulfoNHS, followed by coating with streptavidin.
Signal generation with Silica and PMMA particles. Assays using the HRP model system, as generally described in Example 1, were conducted on silica particles and PMMA particles, with and without ascorbic acid in the reaction mixture. The assays were run on a modified DxI instrument as described above. The assay conditions consisted of combining 45 μL BUFFER II (with or without ascorbic acid), 25 μL of particle suspension, and 15 μL of sample and incubating for 30 min. Then 100 μL of trigger solution A was added to the reaction vessel and the light intensity was recorded.

## O=C1O[C@H]([C@@H](O)CO)C(O)=C1O [Ascorbic Acid, Ascorbic acid]
Biotinylated HRP; Btn-HRP 0 ng/mL vs 0, SSIA 100 μM
  S/S0: 1
Biotinylated HRP; Btn-HRP 0 ng/mL, total HRP 500 ng/mL, SSIA final 100 μM
  B-HRP0 light intensity: 151 and 97
Biotinylated HRP; Btn-HRP 1 ng/mL vs 0, SSIA 100 μM
  S1/S0: 6.6 and 7.8
Biotinylated HRP; Btn-HRP 1 ng/mL, total HRP 500 ng/mL, SSIA final 100 μM
  B-HRP1 light intensity: 995 and 757
Biotinylated HRP; Btn-HRP 10 ng/mL vs 0, SSIA 100 μM
  S2/S0: 216.2 and 171.6
Biotinylated HRP; Btn-HRP 10 ng/mL, total HRP 500 ng/mL, SSIA final 100 μM
  B-HRP10 light intensity: 32,568 and 16,641
Biotinylated HRP; Btn-HRP 100 ng/mL vs 0, SSIA 100 μM
  S3/S0: 30222.2 and 38064.9
Biotinylated HRP; Btn-HRP 100 ng/mL, total HRP 500 ng/mL, SSIA final 100 μM
  B-HRP100 light intensity: 4,553,473 and 3,692,291
Biotinylated HRP; Btn-HRP 250 ng/mL vs 0, SSIA 100 μM
  S4/S0: 59176.1 and 62228.3
Biotinylated HRP; Btn-HRP 250 ng/mL, total HRP 500 ng/mL, SSIA final 100 μM
  B-HRP250 light intensity: 8,915,869 and 6,036,145
Biotinylated HRP; SSIA 100 μM, conclusion in words
  effect in the model system / utility as SSIA: demonstrating utility as SSIA
cTnI
  signal/background: improved analytical sensitivity by increasing signal/background
HRP; HRP 0 ng/ml
  Mean RLU: 263 RLU
  S/S0: 1.0
  RLU: 256 RLU and 260 RLU and 272 RLU
HRP; HRP 1 ng/ml
  Mean RLU: 6,988 RLU
  S/S0: 26.6
  RLU: 6,712 RLU and 6,844 RLU and 7,408 RLU
HRP; HRP 10 ng/ml
  Mean RLU: 309,873 RLU
  S/S0: 1178.2
  RLU: 310,600 RLU and 278,320 RLU and 340,700 RLU
HRP; HRP 100 ng/ml
  Mean RLU: 2,426,677 RLU
  S/S0: 9226.9
  RLU: 2,306,036 RLU and 2,477,760 RLU and 2,496,236 RLU
HRP; HRP 250 ng/ml
  Mean RLU: 2,533,168 RLU
  S/S0: 9631.8
  RLU: 2,535,712 RLU and 2,523,068 RLU and 2,540,724 RLU
